# Reference: ChEMBL document CHEMBL4334431, “Gramicidin S-inspired antimicrobial cyclodextrin to disrupt gram-negative and gram-positive bacterial membranes” (Medchemcomm, 2019)
# Calls of active or inactive are those of the source. The calls are words filed in the database; no cut-off is given here. Square brackets hold non-standard residues; d marks the D form. Peptide text beside a SMILES is read from it. Orn = NCCC[C@H](N)C(=O)O
# Experiments:
# Escherichia coli [1] = assay: Antibacterial activity against Escherichia coli K12 W3110 assessed as bacterial growth inhibition after 20 hrs by liquid microdilution method; format: functional; conditions: K-12 substr. W3110, 20 h
# Salmonella typhimurium = assay: Antibacterial activity against Salmonella typhimurium LT2 assessed as bacterial growth inhibition after 20 hrs by liquid microdilution method; format: functional, Salmonella enterica subsp. enterica serovar Typhimurium; conditions: Salmonella enterica, LT2, 20 h
# Staphylococcus aureus [2] = assay: Antibacterial activity against Staphylococcus aureus FDA 209P assessed as bacterial growth inhibition after 20 hrs by liquid microdilution method; format: functional
# [3] = Haemolytic activity in rabbit RBCs at 50 uM relative to control; format: ADME, cell-based, Oryctolagus cuniculus, Erythrocyte; conditions: rabbit red blood cells (erythrocytes), read-out: Activity
# Pseudomonas aeruginosa [4] = assay: Antibacterial activity against Pseudomonas aeruginosa PAO1 assessed as bacterial growth inhibition after 20 hrs by liquid microdilution method; format: functional; conditions: PAO1, 20 h
# Bacillus subtilis = assay: Antibacterial activity against Bacillus subtilis 168 assessed as bacterial growth inhibition after 20 hrs by liquid microdilution method; format: functional; conditions: Bacillus subtilis, 168, 20 h
# [5] = Partition coefficient, log P of compound; format: physicochemical; conditions: octanol/water
# Staphylococcus aureus [6] = assay: Antibacterial activity against Staphylococcus aureus FDA 209P at sub-MIC treated over 4 serial passages by resistant development assay; format: functional
# Staphylococcus aureus [7] = assay: Antibacterial activity against Staphylococcus aureus FDA 209P at sub-MIC treated over 2 serial passages by resistant development assay; format: functional
# Escherichia coli [8] = assay: Antimicrobial activity against […] at sub-MIC treated by resistant development assay; format: functional; conditions: K-12 substr. W3110
# Escherichia coli [9] = assay: Antimicrobial activity against ESBL-producing Escherichia coli assessed as bacterial growth inhibition after 20 hrs by liquid microdilution method; format: functional
# Pseudomonas aeruginosa [10] = assay: Antibacterial activity against carbapenem-reistant Pseudomonas aeruginosa PAO1 assessed as bacterial growth inhibition after 20 hrs by liquid microdilution method; format: functional; conditions: PAO1, 20 h
# Staphylococcus aureus [11] = assay: Induction of membrane permeabilization in Staphylococcus aureus FDA 209P assessed as decrease in cell viability; format: functional, organism-based
# Escherichia coli [12] = assay: Antimicrobial activity against carbapenem-resistant Escherichia coli assessed as bacterial growth inhibition after 20 hrs by liquid microdilution method; format: functional
# Escherichia coli [13] = assay: Induction of membrane permeabilization in Escherichia coli K12 W3110 assessed as increase in potassium efflux; format: functional, organism-based
# Escherichia coli [14] = assay: Induction of membrane permeabilization in Escherichia coli K12 W3110 assessed as decrease in cell viability; format: functional, organism-based
# Staphylococcus aureus [15] = assay: Induction of membrane permeabilization in Staphylococcus aureus FDA 209P assessed as increase in potassium efflux; format: functional, organism-based
MIC (Escherichia coli [1]),MIC (Salmonella typhimurium),MIC (Staphylococcus aureus [2]),MIC (Pseudomonas aeruginosa [4]),MIC (Bacillus subtilis),logP [5],SMILES,hemolysis at 50 µM [3],also measured
> 45 µM,> 45 µM,> 45 µM,> 45 µM,22 µM,-2.66,NCc1cn(C[C@H]2O[C@@H]3O[C@H]4[C@H](O)[C@@H](O)[C@@H](O[C@H]5[C@H](O)[C@@H](O)[C@@H](O[C@H]6[C@H](O)[C@@H](O)[C@@H](O[C@H]7[C@H](O)[C@@H](O)[C@@H](O[C@H]8[C@H](O)[C@@H](O)[C@@H](O[C@H]9[C@H](O)[C@@H](O)[C@@H](O[C@H]%10[C@@H](O)[C@H](O)[C@@H](O[C@H]2[C@H](O)[C@H]3O)O[C@@H]%10Cn2cc(CN)nn2)O[C@@H]9Cn2cc(CN)nn2)O[C@@H]8Cn2cc(CN)nn2)O[C@@H]7Cn2cc(CN)nn2)O[C@@H]6Cn2cc(CN)nn2)O[C@@H]5Cn2cc(CN)nn2)O[C@@H]4Cn2cc(CN)nn2)nn1,0%,–
–,–,3 µM,–,–,–,CCCCCCCCCC(=O)N[C@@H](Cc1c[nH]c2ccccc12)C(=O)N[C@H](CC(N)=O)C(=O)N[C@@H](CC(=O)O)C(=O)N[C@@H]1C(=O)NCC(=O)N[C@@H](CCCN)C(=O)N[C@@H](CC(=O)O)C(=O)N[C@H](C)C(=O)N[C@@H](CC(=O)O)C(=O)NCC(=O)N[C@H](CO)C(=O)N[C@@H]([C@H](C)CC(=O)O)C(=O)N[C@@H](CC(=O)c2ccccc2N)C(=O)O[C@@H]1C,–,–
–,–,–,–,–,–,C[C@@H]1O[C@@H]1P(=O)(O)O [FOSFOMYCIN],–,MIC (Staphylococcus aureus [6]): > 927 µM; MIC (Staphylococcus aureus [7]): 14 µM; MIC (Escherichia coli [8]): 58 to 927 µM
> 32 µM,> 31 µM,> 32 µM,31 µM,> 32 µM,0.24,CC(C)C(=O)O[C@@H]1[C@@H](OC(=O)C(C)C)[C@H]2O[C@H]3[C@H](OC(=O)C(C)C)[C@@H](OC(=O)C(C)C)[C@@H](O[C@H]4[C@H](OC(=O)C(C)C)[C@@H](OC(=O)C(C)C)[C@@H](O[C@H]5[C@H](OC(=O)C(C)C)[C@@H](OC(=O)C(C)C)[C@@H](O[C@H]6[C@H](OC(=O)C(C)C)[C@@H](OC(=O)C(C)C)[C@@H](O[C@H]7[C@H](OC(=O)C(C)C)[C@@H](OC(=O)C(C)C)[C@@H](O[C@H]8[C@H](OC(=O)C(C)C)[C@@H](OC(=O)C(C)C)[C@@H](O[C@H]9[C@H](OC(=O)C(C)C)[C@@H](OC(=O)C(C)C)[C@@H](O[C@@H]1[C@@H](Cn1cc(CN)nn1)O2)O[C@@H]9Cn1cc(CN)nn1)O[C@@H]8Cn1cc(CN)nn1)O[C@@H]7Cn1cc(CN)nn1)O[C@@H]6Cn1cc(CN)nn1)O[C@@H]5Cn1cc(CN)nn1)O[C@@H]4Cn1cc(CN)nn1)O[C@@H]3Cn1cc(CN)nn1,101%,–
28 µM,–,4 µM,–,–,–,CC(C)C[C@@H]1NC(=O)[C@H](CCCN)NC(=O)[C@H](C(C)C)NC(=O)[C@@H]2CCCN2C(=O)[C@@H](Cc2ccccc2)NC(=O)[C@H](CC(C)C)NC(=O)[C@H](CCCN)NC(=O)[C@H](C(C)C)NC(=O)[C@@H]2CCCN2C(=O)[C@@H](Cc2ccccc2)NC1=O (cyclo(V[Orn]L[dF]PV[Orn]L[dF]P)),–,–

SMILES,MIC (Escherichia coli [1]),MIC (Salmonella typhimurium),MIC (Staphylococcus aureus [2]),MIC (Pseudomonas aeruginosa [4]),MIC (Bacillus subtilis),logP [5],hemolysis at 50 µM [3],also measured
CCC(=O)O[C@@H]1[C@@H](OC(=O)CC)[C@H]2O[C@H]3[C@H](OC(=O)CC)[C@@H](OC(=O)CC)[C@@H](O[C@H]4[C@H](OC(=O)CC)[C@@H](OC(=O)CC)[C@@H](O[C@H]5[C@H](OC(=O)CC)[C@@H](OC(=O)CC)[C@@H](O[C@H]6[C@H](OC(=O)CC)[C@@H](OC(=O)CC)[C@@H](O[C@H]7[C@H](OC(=O)CC)[C@@H](OC(=O)CC)[C@@H](O[C@H]8[C@H](OC(=O)CC)[C@@H](OC(=O)CC)[C@@H](O[C@H]9[C@H](OC(=O)CC)[C@@H](OC(=O)CC)[C@@H](O[C@@H]1[C@@H](Cn1cc(CN)nn1)O2)O[C@@H]9Cn1cc(CN)nn1)O[C@@H]8Cn1cc(CN)nn1)O[C@@H]7Cn1cc(CN)nn1)O[C@@H]6Cn1cc(CN)nn1)O[C@@H]5Cn1cc(CN)nn1)O[C@@H]4Cn1cc(CN)nn1)O[C@@H]3Cn1cc(CN)nn1,4 µM,9 µM,9 µM,4 µM,2 µM,-0.89,17%,MIC (Escherichia coli [9]): 4 µM; MIC (Pseudomonas aeruginosa [10]): 9 µM; Activity (Staphylococcus aureus [11]): Active; MIC (Escherichia coli [12]): 9 µM; Activity (Escherichia coli [13]): Active; Activity (Escherichia coli [14]): Active; Activity (Staphylococcus aureus [15]): Active
